According to patent US20260315499A1, “2'- {HETEROCYCLYL (ARYL/ALKYL) METHYL} - CANNABIDIOL COMPOUNDS AND PROCESS FOR PREPARATION THEREOF” (COUNCIL OF SCIENTIFIC & INDUSTRIAL RESEARCH, priority 2023, published 2026):

Experiments:
[1] = Cell viability assay in macrophage RAW264.7 cells (MTT); assay type: cell-based; conditions: mouse, read-out: % cell viability ± SD; for viability at 24 h, 5 µM: RAW264.7, 5 μM; for viability at 24 h, 10 µM: RAW264.7, 10 μM
Procedure: RAW264.7 cells were seeded in 96-well cell culture plates at a density of 1×10^4 cells per well and incubated overnight at 37° C. with 5% CO2. Next day, the cells were treated with CBD or its derivatives at 5 μM and/or 10 μM concentration for 24 hrs. The MTT dye (2.5 mg/ml, 20 μL) was added to each well 4 hrs before termination (Molecules. 2022, 27, 8068). After 4 hrs of incubation with MTT, the supernatant was discarded, and the formazan crystals were dissolved by adding 100 μL DMSO. The absorbance was recorded at 540 nm on microplate reader (Tecan Infinite Pro).

[2] = Cell viability assay in differentiated neuronal cells (MTT), SHSY5Y; assay type: cell-based; conditions: human, read-out: % Cell viability ± SD, SHSY5Y
Excerpt: (§1) In the present disclosure outlined herein, a focused library of cannabidiol analogues were studied for possible neuro-protective potential employing cell line-based stress model systems which mimic the biological stress conditions in vitro (J Cell Biochem., 2018, 119(8), 6482-6491).
(§2) Human neuroblastoma cells (SHSY5Y) and mouse neuroblastoma cells (N2A) were procured from American Type Culture Collection (ATCC). SHSY5Y cell cultures were maintained in DMEM F12 (Invitrogen) whereas N2A were cultured in DMEM (Invitrogen) with 10% Fetal Bovine Serum (Gibco) medium, subjected to differentiation to acquire neuronal morphology (employing differentiation media DMEM-F12, 3-5% FBS, (For differentiation, low concentration of FBS was used) and 50 μM retinoic acid). Differentiated cells were later seeded into 96 well plates, at a density of 1×10^4 before being incubated for 48 hrs with the synthesized library. The exhausted culture media was substituted with new culture media containing 0.5 mg/ml MTT dye. Eventually, the OD at 490 nm excitation was measured using a 96-well plate reader. The proportion of viable cells was determined as percentage of absorbance of untreated cultures relative to control.

[3] = Cell viability assay in differentiated neuronal cells (MTT), N2A; assay type: cell-based; conditions: mouse, read-out: % Cell viability ± SD, N2A
Excerpt: as §1, §2

[4] = tested on: nitric oxide (NO) production in RAW264.7 macrophages; assay: In vitro anti-inflammatory activity: nitric oxide production (Griess) in LPS-exposed RAW264.7 macrophages; assay type: cell-based, mouse; conditions: LPS 24 hrs; for inhibition at 5 µM / inhibition at 10 µM: Mus musculus, RAW264.7, read-out: % NO Inhibition ± SD
Procedure: Measurement of Nitric oxide: RAW264.7 macrophages were seeded in 96-well plates with a density of 0.5×10^5 cells/well and incubated overnight at 37° C. in a 5% CO2 atmosphere. The cells were treated with different concentration of CBD and its analogues and exposed to LPS for 24 hrs. For nitric oxide (NO) determination, the cell culture supernatant was taken and mixed with equal volume of Griess reagent in another 96 well plate at room temperature (Biomed Pharmacother., 2017, 92, 175-186). The absorbance was measured at 540 nm. The final calculations were determined on a NaNO2 standard curve.

[5] = tested on: p TrkB 515; assay: Survival pathway protein expression by western blotting in SHSY5Y; assay type: cell-based, human; conditions: DHF/Cort., 6 hrs
[6] = tested on: differentiated SHSY5Y cell cultures; assay: Neuroprotective potential in differentiated SHSY5Y after 96 hrs, concentration series with and without corticosterone; assay type: cell-based, human; conditions: DHF 5 nM + Cort 400 μM, 96 hrs
Excerpt: Furthermore, A1 intervention in presence of corticosterone evidenced neuroprotective effect against corticosterone induced impairment and cell death.

[7] = tested on: Anti BDNF; assay: Survival pathway protein expression by western blotting in SHSY5Y; assay type: cell-based, human; conditions: 6 hrs
Procedure: (§3) Here, A1 was tested to find its role in eliciting survival pathway proteins in differentiated human neuroblastoma cells in concentration and time dependent manner.
(§4) To investigate the effect of A1 on the survival proteins, SHSY5Y cell cultures were treated with different concentrations for 6 hrs and analyzed for the expression of survival proteins, including p-Erk 44/42, p-AKT 473, Anti BDNF, and p TrkB 816 and p TrKB 515 by western blotting.

[8] = tested on: p TrkB 515; assay: as above; assay type: cell-based, human; conditions: DHF 5 nM, 6 hrs
Procedure: as §3, §4

[9] = tested on: p TrkB 816; assay: as above; assay type: cell-based, human; conditions: DHF 5 nM, 6 hrs
Procedure: as §3, §4

[10] = tested on: p-Erk 44/42; assay: as above; assay type: cell-based, human; conditions: 6 hrs
Procedure: as §3, §4

[11] = tested on: differentiated SHSY5Y cell cultures; assay: Neuroprotective potential in differentiated SHSY5Y after 96 hrs, concentration series with and without corticosterone; assay type: cell-based, human; conditions: DHF 5 nM, without Cort, 96 hrs
[12] = tested on: p TrkB 816; assay: Survival pathway protein expression by western blotting in SHSY5Y; assay type: cell-based, human; conditions: DHF/Cort., 6 hrs
[13] = tested on: p-AKT 473; assay: as above; assay type: cell-based, human; conditions: 6 hrs
Procedure: as §3
To investigate the effect of A1 on the survival proteins, […] of survival proteins, including p-Erk 44/42, p-AKT 473, Anti BDNF, and p TrkB 816 and p TrKB 515 by western blotting.

## C=C(C)[C@@H]1CCC(C)=C[C@H]1c1c(O)cc(CCCCC)c(CN2CCCCC2)c1O [A2, 2′-(piperidin-1-ylmethyl)-cannabidiol]
[1]
  viability at 24 h, 5 µM: 65.9 ± 6.5%
  viability at 24 h, 10 µM: 61.7 ± 8.1%
[2]
  viability at 48 h, 20 µM: 95.8 ± 1.1%
[3]
  viability at 48 h, 20 µM: 96.9 ± 3.77%

## C=C(C)[C@@H]1CCC(C)=C[C@H]1c1c(O)cc(CCCCC)c(CNc2cnccn2)c1O [A16, 2′-{(pyrazin-2-ylamino)methyl}-cannabidiol]
[1]
  viability at 24 h, 5 µM: 93.6 ± 1.3%
  viability at 24 h, 10 µM: 87.7 ± 0.8%
[4]
  inhibition at 5 µM: 11.5 ± 1.2%
  inhibition at 10 µM: 18.3 ± 1%
[2]
  viability at 48 h, 20 µM: 86.97 ± 0.12%
[3]
  viability at 48 h, 20 µM: 89.85 ± 0.03%

## O=c1cc(-c2ccccc2)oc2c(O)c(O)ccc12 [DHF, reference compound]
[5]
  Relative Protein Expression p TrkB 515: 2.11
[6]
  Cell viability: 104.3
[7]; DHF 5 nM
  Relative Protein Expression Anti BDNF: 1.03
[7]; DHF/Cort.
  Relative Protein Expression Anti BDNF: 0.53
[8]
  Relative Protein Expression p TrkB 515: 2.43
[9]
  Relative Protein Expression p TrkB 816: 1.55
[10]; DHF 5 nM
  Relative Protein Expression p ERK 44/42: 5.28
[10]; DHF/Cort.
  Relative Protein Expression p ERK 44/42: 5.00
[11]
  Cell viability: 113.7
[12]
  Relative Protein Expression p TrkB 816: 0.71
[13]; DHF 5 nM
  Relative Protein Expression PAKT 473: 1.42
[13]; DHF/Cort.
  Relative Protein Expression PAKT 473: 0.96

## C=C(C)[C@@H]1CCC(C)=C[C@H]1c1c(O)cc(CCCCC)c(CN2CCC(O)CC2)c1O [A4, 2′-{(4-hydroxypiperidin-1-yl)methyl}-cannabidiol]
[1]
  viability at 24 h, 5 µM: 93.8 ± 1.14%
  viability at 24 h, 10 µM: 90.6 ± 0.7%
[4]
  inhibition at 5 µM: 11.4 ± 2.9%
  inhibition at 10 µM: 20.8 ± 2.5%
[4]; concentration not given
  % NO inhibition: greater than 20%
[2]
  viability at 48 h, 20 µM: 97.28 ± 0.54%
[3]
  viability at 48 h, 20 µM: 97.71 ± 0.81%

## C=C(C)[C@@H]1CCC(C)=C[C@H]1c1c(O)cc(CCCCC)c(CN2CCC(Cc3ccccc3)CC2)c1O [A7, 2′-{(4-benzylpiperidin-1-yl)methyl}-cannabidiol]
[1]
  viability at 24 h, 5 µM: 90.1 ± 1.3%
  viability at 24 h, 10 µM: 93 ± 1.7%
[4]
  inhibition at 5 µM: 8.4 ± 3.1%
  inhibition at 10 µM: 16 ± 1.2%
[2]
  viability at 48 h, 20 µM: 102 ± 1.57%
[3]
  viability at 48 h, 20 µM: 101.7 ± 0.47%

## C=C(C)[C@@H]1CCC(C)=C[C@H]1c1c(O)cc(CCCCC)c(CN2CCN(c3ccccc3)CC2)c1O [A12, 2′-{(4-phenylpiperazin-1-yl)methyl}-cannabidiol]
[1]
  viability at 24 h, 5 µM: 94.5 ± 1%
  viability at 24 h, 10 µM: 92.7 ± 0.5%
[4]
  inhibition at 5 µM: 8.6 ± 0.93%
  inhibition at 10 µM: 11.4 ± 3.5%
[2]
  viability at 48 h, 20 µM: 95.9 ± 3.39%
[3]
  viability at 48 h, 20 µM: 96.2 ± 2.32%

## C=C(C)[C@@H]1CCC(C)=C[C@H]1c1c(O)cc(CCCCC)c(CN2CCC(c3ccccc3)CC2)c1O [A5, 2′-{(4-phenylpiperidin-1-yl)methyl}-cannabidiol]
[1]
  viability at 24 h, 5 µM: 94.4 ± 1.3%
  viability at 24 h, 10 µM: 90.4 ± 0.9%
[4]
  inhibition at 5 µM: 5.8 ± 2.4%
  inhibition at 10 µM: 12.3 ± 3.1%
[2]
  viability at 48 h, 20 µM: 94.5 ± 1.12%
[3]
  viability at 48 h, 20 µM: 90.6 ± 1.85%

## C=C(C)[C@@H]1CCC(C)=C[C@H]1c1c(O)cc(CCCCC)c(CN2CCN(C)CC2)c1O [A8, 2′-{(4-methylpiperazin-1-yl)methyl}-cannabidiol]
[1]
  viability at 24 h, 5 µM: 94.7 ± 2.7%
  viability at 24 h, 10 µM: 87.1 ± 1.9%
[4]
  inhibition at 5 µM: 10.7 ± 2.3%
  inhibition at 10 µM: 19.6 ± 3.2%
[2]
  viability at 48 h, 20 µM: 89.4 ± 1.7%
[3]
  viability at 48 h, 20 µM: 93.3 ± 0.39%

## C=C(C)[C@@H]1CCC(C)=C[C@H]1c1c(O)cc(CCCCC)c(CN2CCC(C(C)C)CC2)c1O [A3, 2′-{(4-isopropylpiperidin-1-yl)methyl}-cannabidiol]
[1]
  viability at 24 h, 5 µM: 92.8 ± 0.9%
  viability at 24 h, 10 µM: 89.9 ± 1.2%
[4]
  inhibition at 5 µM: 4.9 ± 1.4%
  inhibition at 10 µM: 10.7 ± 2.1%
[2]
  viability at 48 h, 20 µM: 103 ± 2.25%
[3]
  viability at 48 h, 20 µM: 99.7 ± 0.42%
